Results: PubChem BioAssay (NCI)
“And” between values parts separate entries of the source, which are not always exact repeats. Equal entries are not always repeated.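 1) Cells in 96-well plates. 2) Compound, 48 h, 5 concentrations. 3) Linear interpolation between surrounding doses. 4) Unreached endpoint = highest concentration. GI50: concentration for 50% inhibition of growth. The concentration for full growth arrest is given as TGI.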 Where a SMILES comes first, the peptide text is derived from it. The star is where a group is joined. Boc = CC(C)(C)OC(=O)*; tBu = CC(C)(C)*

Legend:
Experiment in all cases: DTP human tumour cell line panel, 48 h
SNB-19 CNS = tested on: SNB-19 CNS
HS 578T breast = tested on: HS 578T breast
NCI-H460 lung = tested on: NCI-H460 lung
SR leukemia = tested on: SR leukemia
SK-MEL-28 melanoma = tested on: SK-MEL-28 melanoma
DU-145 prostate = tested on: DU-145 prostate
A498 renal = tested on: A498 renal
HL-60(TB) leukemia = tested on: HL-60(TB) leukemia
RPMI-8226 leukemia = tested on: RPMI-8226 leukemia
NCI/ADR-RES ovarian = tested on: NCI/ADR-RES ovarian

| Structure (SMILES) | TGI (SNB-19 CNS) | TGI (HS 578T breast) | TGI (NCI-H460 lung) | TGI (SR leukemia) | TGI (SK-MEL-28 melanoma) | TGI (DU-145 prostate) | TGI (A498 renal) | TGI (HL-60(TB) leukemia) | TGI (RPMI-8226 leukemia) | TGI (NCI/ADR-RES ovarian) | GI50 (HS 578T breast) [µM] | GI50 (SNB-19 CNS) [µM] | GI50 (SR leukemia) [µM] | GI50 (SK-MEL-28 melanoma) [µM] | GI50 (DU-145 prostate) [µM] | GI50 (A498 renal) [µM] | GI50 (HL-60(TB) leukemia) [µM] | GI50 (RPMI-8226 leukemia) [µM] | GI50 (NCI/ADR-RES ovarian) [µM] |
| --- | --- | --- | --- | --- | --- | --- | --- | --- | --- | --- | --- | --- | --- | --- | --- | --- | --- | --- | --- |
| Nc1ncc(Sc2ccccc2C(=O)O)s1 | > 100 µM | > 100 µM | > 100 µM | > 100 µM | > 100 µM | > 100 µM | > 100 µM | > 100 µM | > 100 µM | > 100 µM |  |  |  |  |  |  |  |  |  |
| Clc1ccc(Cn2cc(/C=N/n3cnnc3)c3ccccc32)cc1 | > 100 µM | > 100 µM | 75 µM | > 100 µM | > 100 µM | > 100 µM | 4.34 µM | > 100 µM | > 100 µM | > 100 µM |  |  |  |  |  |  |  |  |  |
| COc1ccc2c(C(=O)c3c(C)n(CCN4CCOCC4)c4ccccc34)cccc2c1 | > 100 µM | 40.6 µM | > 100 µM | > 100 µM | > 100 µM | > 100 µM | > 100 µM | 23.4 µM | 83.6 µM | 55.9 µM |  |  |  |  |  |  |  |  |  |
| C=C1C(=O)O[C@@H]2[C@H]1C[C@H](I)[C@@]1(C)CC[C@H](O1)[C@](C)(I)CCCC(C)[C@@H]2O (some centres undefined) | 30.5 µM | 40.1 µM | 28.6 µM | 9.41 µM | 17.6 µM | 13.6 µM | 28.1 µM | 4.54 µM | 9.3 µM | 9.84 µM |  |  |  |  |  |  |  |  |  |
| COc1cccc(Nc2nc(NS(=O)(=O)c3cc(C)c(Cl)cc3S)n[nH]2)c1 | > 100 µM | > 100 µM | > 100 µM | > 100 µM | > 100 µM | > 100 µM | > 100 µM | > 100 µM | > 100 µM | > 100 µM |  |  |  |  |  |  |  |  |  |
| O/N=C1\CSc2ccccc2C1 | > 100 µM | > 100 µM | > 100 µM | > 100 µM | > 100 µM | > 100 µM | > 100 µM | > 100 µM | > 100 µM | > 100 µM |  |  |  |  |  |  |  |  |  |
| COc1cccc(/C=C2/S/C(=N/Nc3nc(C)c(C(C)=O)s3)NC2=O)c1O | > 100 µM | > 100 µM | > 100 µM | > 100 µM | > 100 µM | > 100 µM | > 100 µM | 46 µM | 84.6 µM | > 100 µM |  |  |  |  |  |  |  |  |  |
| Cc1ccc2oc3c(ccc(=O)n3C)c(=O)c2c1 | > 100 µM | > 100 µM | > 100 µM | > 100 µM | > 100 µM | > 100 µM | > 100 µM | > 100 µM |  | > 100 µM |  |  |  |  |  |  |  |  |  |
| CO/C(=N\N=C(/c1ccccc1)C(F)(F)F)c1ccncc1 | > 100 µM | > 100 µM | > 100 µM | > 100 µM | > 100 µM | > 100 µM | > 100 µM | > 100 µM | > 100 µM | 71.6 µM |  |  |  |  |  |  |  |  |  |
| CCOC(=O)C(C)(Cc1ccc(O)cn1)NC(=O)c1ccccc1 (centres undefined) | > 100 µM | > 100 µM | > 100 µM | > 100 µM | > 100 µM | > 100 µM |  | > 100 µM | > 100 µM | > 100 µM |  |  |  |  |  |  |  |  |  |
| Cc1ccc(C=C(C(=O)O)C(=O)O)o1 | > 100 µM | > 100 µM | > 100 µM | > 100 µM | > 100 µM | > 100 µM | > 100 µM | > 100 µM | > 100 µM | > 100 µM |  |  |  |  |  |  |  |  |  |
| C=C(Cl)C(Cl)(CBr)CCC(Br)C(C)(C)Cl (centres undefined) | 5.54 µM and 4.55 µM and 10.1 µM | 5.25 µM and 5.08 µM and 9.16 µM | 3.66 µM and 2.93 µM and 5.82 µM | 61.2 µM and 26.5 µM and 33.9 µM | 8.93 µM and 3.51 µM and 24.1 µM | 3.86 µM and 3.1 µM and 7.05 µM | 4.03 µM and 4.02 µM and 6.05 µM | 3 µM and 3.02 µM and 6.99 µM | 1.33 µM and 1.56 µM and 3.22 µM | 7.18 µM and 4.48 µM and 33.2 µM | 0.802 |  |  |  |  |  |  |  |  |
| CC(=O)Nc1sccc1S(=O)(=O)c1ccc(Cl)cc1 | > 100 µM | > 100 µM | > 100 µM | > 100 µM | > 100 µM | > 100 µM |  | > 100 µM | > 100 µM | > 100 µM |  |  |  |  |  |  |  |  |  |
| O=C(O)c1ccccc1CC(Cc1ccccc1)C(=O)O (centres undefined) | > 100 µM | > 100 µM | > 100 µM | > 100 µM | > 100 µM | > 100 µM | > 100 µM | > 100 µM | > 100 µM | > 100 µM |  |  |  |  |  |  |  |  |  |
| CCOc1cc(/C=C/C(=O)CC(=O)/C=C/c2ccc(OC(=O)CNCCN(CC)CC)c(OCC)c2)ccc1OC(=O)CNCCN(CC)CC | 14.2 µM | 6.43 µM |  | 1.63 µM | 4.56 µM | 3.56 µM | 3.85 µM | 4.25 µM | 2.1 µM | 24.1 µM | 2.19 | 2.86 | 0.313 | 1.96 | 1.61 | 2.02 | 1.16 | 0.45 | 3.46 |
| Cc1cc(NS(=O)(=O)c2ccc(NC(=O)c3ccc4nc5ccccc5c(Nc5ccc(S(=O)(=O)Nc6cc(C)on6)cc5)c4c3)cc2)no1 | > 50 µM | > 50 µM | > 50 µM | > 50 µM | > 50 µM | > 50 µM |  | > 50 µM | > 50 µM | > 50 µM |  |  |  |  |  |  |  |  |  |
| CC(OC(C)(C)C)C(NC(=O)C(N)CCCCNC(=O)OC(C)(C)C)C(=O)NC(Cc1ccccc1)C(=O)O (centres undefined) (H-Lys(Boc)-Thr(tBu)-Phe-OH; configuration not given here) | > 100 µM | > 100 µM | > 100 µM | > 100 µM | > 100 µM | > 100 µM |  | > 100 µM | > 100 µM | > 100 µM |  |  |  |  |  |  |  |  |  |
